Our source for the IC50 values is ChEMBL document CHEMBL1156532, “Model structure of the Na+/H+ exchanger 1 (NHE1): functional and clinical implications” (J Biol Chem, 2007).

Test [1] deals with Na(+)/H(+) antiporter NhaA (Escherichia coli K-12, UniProt P13738, H225Q). Kind of test: Antiporter activity in Escherichia coli K12 wild type EcNhaA H225Q mutant assessed as effect on sodium chloride-induced pH changes by acridine orange fluorescence assay.
Test [2] deals with T1, Na(+)/H(+) antiporter NhaA (Escherichia coli K-12, UniProt P13738, H225R). As to the kind of experiment: Antiporter activity in Escherichia coli K12 wild type EcNhaA H225R mutant assessed as effect on lithium chloride-induced pH changes by acridine orange fluorescence assay.
Test [3] deals with T1, Na(+)/H(+) antiporter NhaA. As to the kind of experiment: Antiporter activity in Escherichia coli K12 wild type EcNhaA H225R mutant assessed as effect on sodium chloride-induced pH changes by acridine orange fluorescence assay.
Test [4] in a line: Antiporter activity in Escherichia coli K12 wild type EcNhaA N64C mutant assessed as effect on lithium chloride-induced pH changes by acridine orange fluorescence assay.
Test [5] is described as follows: Antiporter activity in Escherichia coli K12 wild type EcNhaA G76C mutant assessed as effect on lithium chloride-induced pH changes by acridine orange fluorescence assay.
Test [6] in a line: Antiporter activity in Escherichia coli K12 wild type EcNhaA G76C mutant assessed as effect on sodium chloride-induced pH changes by acridine orange fluorescence assay.
Test [7] can be described thus: Antiporter activity in Escherichia coli K12 wild type EcNhaA F72C mutant assessed as effect on lithium chloride-induced pH changes by acridine orange fluorescence assay.
Test [8] in a line: Antiporter activity in Escherichia coli K12 wild type EcNhaA F72C mutant assessed as effect on sodium chloride-induced pH changes by acridine orange fluorescence assay.
In test [9] the target is Na(+)/H(+) antiporter NhaA (Escherichia coli K-12, UniProt P13738, F71C). Kind of test: Antiporter activity in Escherichia coli K12 wild type EcNhaA F71C mutant assessed as effect on lithium chloride-induced pH changes by acridine orange fluorescence assay.
Test [10] can be described thus: Antiporter activity in Escherichia coli K12 wild type EcNhaA W62C mutant assessed as effect on lithium chloride-induced pH changes by acridine orange fluorescence assay.
Test [11] concerns the target Na(+)/H(+) antiporter NhaA (Escherichia coli K-12, UniProt P13738, W62C). Kind of test: Antiporter activity in Escherichia coli K12 wild type EcNhaA W62C mutant assessed as effect on sodium chloride-induced pH changes by acridine orange fluorescence assay.
Test [12] addresses T2, Na(+)/H(+) antiporter NhaA (Escherichia coli K-12, UniProt P13738).
T2 sequence (P13738 whole entry): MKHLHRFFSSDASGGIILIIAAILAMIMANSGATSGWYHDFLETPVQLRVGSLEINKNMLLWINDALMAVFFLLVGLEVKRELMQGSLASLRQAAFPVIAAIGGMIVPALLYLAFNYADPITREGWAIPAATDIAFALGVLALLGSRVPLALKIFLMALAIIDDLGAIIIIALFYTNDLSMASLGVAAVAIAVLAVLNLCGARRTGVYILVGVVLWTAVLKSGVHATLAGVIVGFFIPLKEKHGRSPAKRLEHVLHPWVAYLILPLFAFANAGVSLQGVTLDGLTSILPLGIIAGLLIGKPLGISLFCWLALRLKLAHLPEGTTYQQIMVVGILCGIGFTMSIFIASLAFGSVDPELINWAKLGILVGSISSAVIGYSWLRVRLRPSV
Kind of test: Antiporter activity in Escherichia coli K12 wild type EcNhaA assessed as effect on lithium chloride-induced pH changes by acridine orange fluorescence assay.

In test [13] the target is T2, Na(+)/H(+) antiporter NhaA. Kind of test: Antiporter activity in Escherichia coli K12 wild type EcNhaA assessed as effect on sodium chloride-induced pH changes by acridine orange fluorescence assay.
Test [14] in a line: Antiporter activity in Escherichia coli K12 wild type EcNhaA H225Q mutant assessed as effect on lithium chloride-induced pH changes by acridine orange fluorescence assay.
Test [15] in a line: Antiporter activity in Escherichia coli K12 wild type EcNhaA N64C mutant assessed as effect on sodium chloride-induced pH changes by acridine orange fluorescence assay.
Test [16] in a line: Antiporter activity in Escherichia coli K12 wild type EcNhaA F71C mutant assessed as effect on sodium chloride-induced pH changes by acridine orange fluorescence assay.

The IC50 is the concentration that gives 50% inhibition.

Molecules are shown by their SMILES.

T1 sequence (P13738 whole entry H225R): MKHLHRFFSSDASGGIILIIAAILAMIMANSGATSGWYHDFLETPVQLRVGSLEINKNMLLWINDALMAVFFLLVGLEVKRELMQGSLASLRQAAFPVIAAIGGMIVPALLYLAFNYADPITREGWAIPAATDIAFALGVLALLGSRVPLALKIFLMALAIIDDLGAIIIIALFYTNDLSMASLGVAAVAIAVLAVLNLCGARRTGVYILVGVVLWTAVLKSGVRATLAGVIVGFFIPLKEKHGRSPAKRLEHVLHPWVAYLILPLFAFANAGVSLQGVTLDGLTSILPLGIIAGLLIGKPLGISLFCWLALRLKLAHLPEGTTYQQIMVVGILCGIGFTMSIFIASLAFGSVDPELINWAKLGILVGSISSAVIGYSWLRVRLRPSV
Chain of Na(+)/H(+) antiporter NhaA (Escherichia coli K-12, UniProt P13738, W62C) (P13738 whole entry W62C): as the sequence (P13738 whole entry H225R) above, with W62C, R225H counted along it
Chain of Na(+)/H(+) antiporter NhaA (Escherichia coli K-12, UniProt P13738, F71C) (P13738 whole entry F71C): as the sequence (P13738 whole entry H225R) above, with F71C, R225H counted along it
Chain of Na(+)/H(+) antiporter NhaA (Escherichia coli K-12, UniProt P13738, H225Q) (P13738 whole entry H225Q): as the sequence (P13738 whole entry H225R) above, with R225Q counted along it

On to `NC1=Nc2cccc3cccc(c23)N1`, for which the IC50 in [1] is 800 nM; in test [2] it was 2300 nM; in test [3] it was 1000 nM; in test [4] it was 17000 nM; in [5], 1200 nM; in [6], 1600 nM. For the same compound, the IC50 stood at 2600 nM in test [7]; 1800 nM in [8]; 800 nM in test [9]; 1500 nM in test [10]; 1200 nM in [11]; 2200 nM in test [12]. The IC50 in [13] amounted to 1700 nM; in test [14] it was 7800 nM; in test [15], 500 nM; in [16], 300 nM.
